Laboratory results: ChEMBL document CHEMBL3885881, “DrugMatrix”

Species on record: Rattus norvegicus
Assay: DrugMatrix - Regimen: Daily Repeat
Format: toxicity, organism-based, Sprague-Dawley
Set-up: regimen Daily Repeat, gender Male, age 6-8 weeks
Conditions: in vivo, sc, route subcutaneous, […]; for ABSOLUTE BASOPHIL / ABSOLUTE EOSINOPHIL / ABSOLUTE LYMPHOCYTE / ABSOLUTE MONOCYTE / ABSOLUTE SEGMENTED NEUTROPHIL / BASOPHIL / EOSINOPHIL / ERYTHROCYTE COUNT / HEMATOCRIT / HEMOGLOBIN / LEUKOCYTE COUNT / LYMPHOCYTE / MEAN CORPUSCULAR HEMOGLOBIN / MEAN CORPUSCULAR HEMOGLOBIN CONCENTRATION / MEAN CORPUSCULAR VOLUME / MONOCYTE / NEUTROPHIL / NUCLEATED RED BLOOD CELLS / PLATELET COUNT: tissue Blood; for ALANINE AMINOTRANSFERASE / ALBUMIN / ALKALINE PHOSPHATASE / ASPARTATE AMINOTRANSFERASE / BLOOD UREA NITROGEN / CARBON DIOXIDE / CHLORIDE / CHOLESTEROL / CREATINE PHOSPHOKINASE / CREATININE / GLUCOSE / LACTATE DEHYDROGENASE / LIPASE / PHOSPHORUS / POTASSIUM / SODIUM / TOTAL BILIRUBIN / TOTAL PROTEIN / URIC ACID: tissue Plasma
[1] = 0 mg/kg, 72 h, dose level Control, time 3 day
[2] = 0 mg/kg, 120 h, dose level Control, time 5 day
[3] = 14 mg/kg, 72 h, dose level Low, time 3 day

Q: What does the source list for `CCN(CC)CCOCCC1=CCC2CC1C2(C)C` (centres undefined) [MYRTECAINE]?
A: ABSOLUTE BASOPHIL [1]: 0 CELLS/uL; ABSOLUTE EOSINOPHIL [1]: 0 CELLS/uL; ABSOLUTE LYMPHOCYTE [1]: 10887 CELLS/uL; ABSOLUTE MONOCYTE [1]: 56 CELLS/uL; ABSOLUTE SEGMENTED NEUTROPHIL [1]: 1057 CELLS/uL; BASOPHIL [1]: 0%; EOSINOPHIL [1]: 0%; ERYTHROCYTE COUNT [1]: 5.31 x10E6/uL; HEMATOCRIT [1]: 33.78%; HEMOGLOBIN [1]: 13.4 G/DL; LEUKOCYTE COUNT [1]: 12 x10E3/uL; LYMPHOCYTE [1]: 91.17%; MEAN CORPUSCULAR HEMOGLOBIN [1]: 25.25 pg; MEAN CORPUSCULAR HEMOGLOBIN CONCENTRATION [1]: 39.65 G/DL; MEAN CORPUSCULAR VOLUME [1]: 63.65 fL; MONOCYTE [1]: 0.5%; NEUTROPHIL [1]: 8.33%; NUCLEATED RED BLOOD CELLS [1]: 0 /100WBC; PLATELET COUNT [1]: 1142 x10E3/uL; ALANINE AMINOTRANSFERASE [1]: 57.17 u/L; ALBUMIN [1]: 4.28 G/DL; ALKALINE PHOSPHATASE [1]: 425.83 u/L; ASPARTATE AMINOTRANSFERASE [1]: 93.83 u/L; BLOOD UREA NITROGEN [1]: 14.17 mg/dL; CARBON DIOXIDE [1]: 33.5 mmol/L; CHLORIDE [1]: 100 MEQ/L; CHOLESTEROL [1]: 70.33 mg/dL; CREATINE PHOSPHOKINASE [1]: 438.67 u/L; CREATININE [1]: 0.19 mg/dL; GLUCOSE [1]: 138.5 mg/dL; LACTATE DEHYDROGENASE [1]: 190.17 u/L; LIPASE [1]: 9.83 u/L; PHOSPHORUS [1]: 11.05 mg/dL; POTASSIUM [1]: 6.59 MEQ/L; SODIUM [1]: 143.58 MEQ/L; TOTAL BILIRUBIN [1]: 0.22 mg/dL; TOTAL PROTEIN [1]: 6.15 G/DL; URIC ACID [1]: 1.3 mg/dL; ABSOLUTE BASOPHIL [2]: 0 CELLS/uL; ABSOLUTE EOSINOPHIL [2]: 91.17 CELLS/uL; ABSOLUTE LYMPHOCYTE [2]: 11847.67 CELLS/uL; ABSOLUTE MONOCYTE [2]: 172.83 CELLS/uL; ABSOLUTE SEGMENTED NEUTROPHIL [2]: 1105 CELLS/uL; BASOPHIL [2]: 0%; EOSINOPHIL [2]: 0.67%; ERYTHROCYTE COUNT [2]: 5.35 x10E6/uL; HEMATOCRIT [2]: 33.65%; HEMOGLOBIN [2]: 13.42 G/DL; LEUKOCYTE COUNT [2]: 13.22 x10E3/uL; LYMPHOCYTE [2]: 89.83%; MEAN CORPUSCULAR HEMOGLOBIN [2]: 25.12 pg; MEAN CORPUSCULAR HEMOGLOBIN CONCENTRATION [2]: 39.9 G/DL; MEAN CORPUSCULAR VOLUME [2]: 63 fL; MONOCYTE [2]: 1.33%; NEUTROPHIL [2]: 8.17%; NUCLEATED RED BLOOD CELLS [2]: 0 /100WBC; PLATELET COUNT [2]: 1347.83 x10E3/uL; ALANINE AMINOTRANSFERASE [2]: 50 u/L; ALBUMIN [2]: 4.1 G/DL; ALKALINE PHOSPHATASE [2]: 329.17 u/L; ASPARTATE AMINOTRANSFERASE [2]: 77.17 u/L; BLOOD UREA NITROGEN [2]: 16.83 mg/dL; CARBON DIOXIDE [2]: 34.83 mmol/L; CHLORIDE [2]: 99.83 MEQ/L; CHOLESTEROL [2]: 75.67 mg/dL; CREATINE PHOSPHOKINASE [2]: 295.83 u/L; CREATININE [2]: 0.18 mg/dL; GLUCOSE [2]: 156.33 mg/dL; LACTATE DEHYDROGENASE [2]: 166.83 u/L; LIPASE [2]: 9.83 u/L; PHOSPHORUS [2]: 12.18 mg/dL; POTASSIUM [2]: 6.69 MEQ/L; SODIUM [2]: 143.97 MEQ/L; TOTAL BILIRUBIN [2]: 0.22 mg/dL; TOTAL PROTEIN [2]: 6.05 G/DL; URIC ACID [2]: 1.6 mg/dL; ABSOLUTE BASOPHIL [3]: 0 CELLS/uL; ABSOLUTE EOSINOPHIL [3]: 0 CELLS/uL; ABSOLUTE LYMPHOCYTE [3]: 10822.33 CELLS/uL; ABSOLUTE MONOCYTE [3]: 0 CELLS/uL; ABSOLUTE SEGMENTED NEUTROPHIL [3]: 1344.33 CELLS/uL; BASOPHIL [3]: 0%; EOSINOPHIL [3]: 0%; ERYTHROCYTE COUNT [3]: 5.32 x10E6/uL; HEMATOCRIT [3]: 33.73%; HEMOGLOBIN [3]: 13.37 G/DL; LEUKOCYTE COUNT [3]: 12.17 x10E3/uL; LYMPHOCYTE [3]: 89%; MEAN CORPUSCULAR HEMOGLOBIN [3]: 25.13 pg; MEAN CORPUSCULAR HEMOGLOBIN CONCENTRATION [3]: 39.6 G/DL; MEAN CORPUSCULAR VOLUME [3]: 63.4 fL; MONOCYTE [3]: 0%; NEUTROPHIL [3]: 11%; NUCLEATED RED BLOOD CELLS [3]: 0 /100WBC; PLATELET COUNT [3]: 1197.33 x10E3/uL; ALANINE AMINOTRANSFERASE [3]: 47.67 u/L; ALBUMIN [3]: 4.13 G/DL; ALKALINE PHOSPHATASE [3]: 420 u/L; ASPARTATE AMINOTRANSFERASE [3]: 80.67 u/L; BLOOD UREA NITROGEN [3]: 13.67 mg/dL; CARBON DIOXIDE [3]: 25.67 mmol/L; CHLORIDE [3]: 103.67 MEQ/L; CHOLESTEROL [3]: 75.67 mg/dL; CREATINE PHOSPHOKINASE [3]: 200.33 u/L; CREATININE [3]: 0.16 mg/dL; GLUCOSE [3]: 152.33 mg/dL; LACTATE DEHYDROGENASE [3]: 214.67 u/L; LIPASE [3]: 9 u/L; PHOSPHORUS [3]: 14.03 mg/dL; POTASSIUM [3]: 6.82 MEQ/L; SODIUM [3]: 146.53 MEQ/L; TOTAL BILIRUBIN [3]: 0.17 mg/dL; TOTAL PROTEIN [3]: 5.97 G/DL; URIC ACID [3]: 1.5 mg/dL
